Data as given in patent publication US11414689B2, “Hydrolysis of steviol glycosides by beta-glucosidase” (Conagen Inc., priority 2017, dated 2022).

B1: B-glu1: Pichia pastoris (GS115) beta-glucosidase, SEQ ID NO: 1, His-tagged, expressed in E. coli (protein, listed as Pichia pastoris)
chain: MTQLDVESLIQELTLNEKVQLLSGSDFWHTTPVRRLGIPKMRLSDGPNGVRGTKFFNGVPTACFPCGTGLGATFDKELLKEAGSLMADEAKAKAASVVLGPTANIARGPNGGRGFESFGEDPVVNGLSSAAMINGLQGKYIAATMKHYVCNDLEMDRNCIDAQVSHRALREVYLLPFQIAVRDANPRAIMTAYNKANGEHVSQSKFLLDEVLRKEWGWDGLLMSDWFGVYDAKSSITNGLDLEMPGPPQCRVHSATDHAINSGEIHINDVDERVRSLLSLINYCHQSGVTEEDPETSDNNTPETIEKLRKISRESIVLLKDDDRNRSILPLKKSDKIAVIGNNAKQAAYCGGGSASVLSYHTTTPFDSIKSRLEDSNTPAYTIGADAYKNLPPLGPQMTDSDGKPGFDAKFFVGSPTSKDRKLIDHFQLTNSQVFLVDYYNEQIPENKEFYVDVEGQFIPEEDGTYNFGLTVFGTGRLFVDDKLVSDSSQNQTPGDSFFGLAAQEVIGSIHLVKGKAYKIKVLYGSSVTRTYEIAASVAFEGGAFTFGAAKQRNEDEEIARAVEIAKANDKVVLCIGLNQDFESEGFDRPDIKIPGATNKMVSAVLKANPNTVIVNQTGTPVEMPWASDAPVILQAWFGGSEAGTAIADVLFGDYNPSGKLTVTFPLRFEDNPAYLNFQSNKQACWYGEDVYVGYRYYETIDRPVLFPFGHGLSFTEFDFTDMFVRLEEENLEVEVVVRNTGKYDGAEVVQLYVAPVSPSLKRPIKELKEYAKIFLASGEAKTVHLSVPIKYATSFFDEYQKKWCSEKGEYTILLGSSSADIKVSQSITLEKTTFWKGL
modifications: His tag

Tests used:
[1] = tested on: disrupted Pichia cells (released B-glu1 enzyme); assay: hydrolysis of steviol glycosides by disrupted Pichia cells (crude extract), HPLC analysis; format: biochemical, Pichia pastoris; conditions: crude protein 50 ug in 300 ul, 1 g/L substrate, pH 7.2, 30-37° C.; FIG. 8 samples at 24 hours
Method: Pichia cells were suspended in extraction buffer (50 mM potassium phosphate buffer, pH 7.2; 150 mM NaCl). After sonication, the supernatant (crude extract) was collected by centrifuge set at 12,000 g at 4° C. The resulting crude protein (50 ug) was tested in a 300 ul in vitro reaction system. The reaction system contains 50 mM potassium phosphate buffer, pH 7.2, 1 mg/ml steviol glycoside. The reaction was performed at 30-37° C. and 50 ul reaction was terminated by adding 200 μL 1-butanol at various time points. The samples were extracted three times with 200 μL 1-butanol. The pooled fraction was dried and dissolved in 100 μL 80% methanol for high-performance liquid chromatography (HPLC) analysis. HPLC analysis was then performed using a Dionex UPLC ultimate 3000 system (Sunnyvale, Calif.), including a quaternary pump, a temperature controlled column compartment, an auto sampler and a UV absorbance detector. A Synergi Hydro-RP column (Phenomenex) with guard column was used for the characterization of steviol glycosides in the pooled samples. Acetonitrile in water was used mobile phase in the HPLC analysis. The detection wavelength used in the HPLC analysis was 210 nm.

[2] = tested on: Beta-glucosidase (B-glu1, SEQ: 1); assay: de-glycosylation (hydrolysis) of steviol glycosides by purified recombinant B-glu1, HPLC analysis; format: biochemical, Pichia pastoris; conditions: for extent of conversion by recombinant B-glu1 at 24 hrs: 1 g/L substrate; for Products of hydrolysis of steviol glycoside substrate by B-glu1: recombinant B-glu1 10 μg in 300 μl, 1 mg/ml steviol glycoside, 50 mM potassium phosphate pH 7.2, 30-37° C.
Excerpt: According to the current disclosure Pichia pastoris genome analysis was completed and several beta-glycosidase candidate genes were identified. Full length DNA fragments of all candidate beta-glucosidase genes were commercially synthesized. Almost all codons of the cDNA were changed to those preferred for E. coli (Genscript, NJ). The synthesized DNA was cloned into a bacterial expression vector pETite N-His SUMO Kan Vector (Lucigen). These same experiments could be performed in Yarrowia lipolytica with sequences optimized for such use.
Each expression construct was transformed into E. coli BL21 (DE3), which was subsequently grown in LB media containing 50 μg/mL kanamycin at 37° C. until reaching an OD600 of 0.8-1.0. Protein expression was induced by addition of 1 mM isopropyl β-D-1-thiogalactopyranoside (IPTG) and the culture was further grown at 16° C. for 22 hr. Cells were harvested by centrifugation (3,000×g; 10 min; 4° C.). The cell pellets were collected and were either used immediately or stored at −80° C.
The cell pellets typically were re-suspended in lysis buffer (50 mM potassium phosphate buffer, pH 7.2, 25 ug/ml lysozyme, 5 ug/ml DNase I, 20 mM imidazole, 500 mM NaCl, 10% glycerol, and 0.4% Triton X-100). The cells were disrupted by sonication under 4° C., and the cell debris was clarified by centrifugation (18,000×g; 30 min). Supernatant was loaded to an equilibrated (equilibration buffer: 50 mM potassium phosphate buffer, pH 7.2, 20 mM imidazole, 500 mM NaCl, 10% glycerol) Ni-NTA (Qiagen) affinity column. After loading of protein sample, the column was washed with equilibration buffer to remove unbound contaminant proteins. The His-tagged beta-glucosidase recombinant polypeptides were eluted by equilibration buffer containing 250 mM imidazole.
The purified candidate beta-glucosidase recombinant polypeptides were assayed for de-glycosylation activity by using various steviol glycosides as substrate. Typically, the recombinant polypeptide (10 μg) was tested in a 300 μl in vitro reaction system. The reaction system contains 50 mM potassium phosphate buffer, pH 7.2, 1 mg/ml steviol glycoside. The reaction was performed at 30-37° C. and 50 ul reaction was terminated by adding 200 μL 1-butanol at various time points. The samples were extracted three times with 200 μL 1-butanol. The pooled fraction was dried and dissolved in 100 μL 80% methanol for high-performance liquid chromatography (HPLC) analysis.
HPLC analysis was then performed using a Dionex UPLC ultimate 3000 system (Sunnyvale, Calif.), including a quaternary pump, a temperature controlled column compartment, an auto sampler and a UV absorbance detector. A Synergi Hydro-RP column (Phenomenex) with guard column was used for the characterization of steviol glycosides in the pooled samples. Acetonitrile in water was used mobile phase in the HPLC analysis. The detection wavelength used in the HPLC analysis was 210 nm.

[3] = relative to table sugar; cited from earlier work

Molecule	Products of hydrolysis by disrupted Pichia cells [1]	Products of hydrolysis of steviol glycoside substrate by B-glu1 [2]	other results
C=C1C[C@@]23CC[C@H]4[C@@](C)(CCC[C@@]4(C)C(=O)O[C@@H]4O[C@H](CO)[C@@H](O)[C@H](O[C@@H]5O[C@H](CO)[C@@H](O)[C@H](O)[C@H]5O)[C@H]4O)[C@@H]2CC[C@]1(O[C@@H]1O[C@H](CO)[C@@H](O)[C@H](O[C@@H]2O[C@H](CO)[C@@H](O)[C@H](O)[C@H]2O)[C@H]1O[C@@H]1O[C@H](CO)[C@@H](O)[C@H](O)[C@H]1O)C3 [Reb 1, rebaudioside I]	rebaudioside B	Reb A, Reb B	extent of conversion by recombinant B-glu1 at 24 hrs [2]: completely; Products of hydrolysis of steviol glycoside substrate by B-glu1 ([2]; listed as Rebaudioside I): rebaudioside A and the produced A can be hydrolyzed to produce rebaudioside B
C=C1C[C@@]23CC[C@H]4[C@@](C)(CCC[C@@]4(C)C(=O)O[C@@H]4O[C@H](CO)[C@@H](O)[C@H](O)[C@H]4O)[C@@H]2CC[C@]1(O[C@@H]1O[C@H](CO)[C@@H](O)[C@H](O[C@@H]2O[C@H](CO)[C@@H](O)[C@H](O)[C@H]2O)[C@H]1O[C@@H]1O[C@H](CO)[C@@H](O)[C@H](O)[C@H]1O)C3 [Reb A, rebaudioside A]	rebaudioside B	Reb B	Products of hydrolysis of steviol glycoside substrate by B-glu1 ([2]; listed as Rebaudioside A): rebaudioside B
C=C1C[C@@]23CC[C@H]4[C@@](C)(CCC[C@@]4(C)C(=O)O[C@@H]4O[C@H](CO)[C@@H](O)[C@H](O)[C@H]4O[C@@H]4O[C@H](CO)[C@@H](O)[C@H](O)[C@H]4O)[C@@H]2CC[C@]1(O[C@@H]1O[C@H](CO)[C@@H](O)[C@H](O[C@@H]2O[C@H](CO)[C@@H](O)[C@H](O)[C@H]2O)[C@H]1O[C@@H]1O[C@H](CO)[C@@H](O)[C@H](O)[C@H]1O)C3 [Reb D, rebaudioside D]	rebaudioside B	Reb B	Products of hydrolysis of steviol glycoside substrate by B-glu1 ([2]; listed as Rebaudioside D): rebaudioside B (FIG. 6B) and Reb A
C=C1C[C@@]23CC[C@H]4[C@@](C)(CCC[C@@]4(C)C(=O)O[C@@H]4O[C@H](CO)[C@@H](O)[C@H](O)[C@H]4O[C@@H]4O[C@H](CO)[C@@H](O)[C@H](O)[C@H]4O)[C@@H]2CC[C@]1(O[C@@H]1O[C@H](CO)[C@@H](O)[C@H](O)[C@H]1O[C@@H]1O[C@H](CO)[C@@H](O)[C@H](O)[C@H]1O)C3 [Reb E, rebaudioside E]	steviolbioside	stevioside, Steviolbioside (SB)	Products of hydrolysis of steviol glycoside substrate by B-glu1 ([2]; listed as Rebaudioside E): stevioside and steviolbioside
C=C1C[C@@]23CC[C@H]4[C@@](C)(CCC[C@@]4(C)C(=O)O[C@@H]4O[C@H](CO)[C@@H](O)[C@H](O)[C@H]4O)[C@@H]2CC[C@]1(O[C@@H]1O[C@H](CO)[C@@H](O)[C@H](O[C@@H]2O[C@H](CO)[C@@H](O)[C@H](O)[C@H]2O)[C@H]1O)C3 [Reb G, rebaudioside G]	steviol-13-glucoside and continually to produce steviol	Steviol-13-O-glucoside (S-13-G), steviol	Products of hydrolysis of steviol glycoside substrate by B-glu1 ([2]; listed as Rebaudioside G): steviol-13-glucoside
C=C1C[C@@]23CC[C@H]4[C@@](C)(CCC[C@@]4(C)C(=O)O[C@@H]4O[C@H](CO)[C@@H](O)[C@H](O[C@@H]5O[C@H](CO)[C@@H](O)[C@H](O)[C@H]5O)[C@H]4O[C@@H]4O[C@H](CO)[C@@H](O)[C@H](O)[C@H]4O)[C@@H]2CC[C@]1(O[C@@H]1O[C@H](CO)[C@@H](O)[C@H](O[C@@H]2O[C@H](CO)[C@@H](O)[C@H](O)[C@H]2O)[C@H]1O[C@@H]1O[C@H](CO)[C@@H](O)[C@H](O)[C@H]1O)C3 [Reb M, rebaudioside M]	–	No cleavage	–
C=C1C[C@@]23CC[C@H]4[C@@](C)(CCC[C@@]4(C)C(=O)O[C@@H]4O[C@H](CO)[C@@H](O)[C@H](O)[C@H]4O)[C@@H]2CC[C@]1(O[C@@H]1O[C@H](CO)[C@@H](O)[C@H](O)[C@H]1O)C3 [Rub, rubusoside]	steviol-13-glucoside and continually to produce steviol	Steviol-13-O-glucoside (S-13-G), steviol	Products of hydrolysis of steviol glycoside substrate by B-glu1 ([2]; listed as Rubusoside): steviol-13-glucoside
C=C1C[C@@]23CC[C@H]4[C@@](C)(CCC[C@@]4(C)C(=O)O[C@@H]4O[C@H](CO)[C@@H](O)[C@H](O)[C@H]4O)[C@@H]2CC[C@]1(O[C@@H]1O[C@H](CO)[C@@H](O)[C@H](O)[C@H]1O[C@@H]1O[C@H](CO)[C@@H](O)[C@H](O)[C@H]1O)C3 [Stevioside, stevioside]	steviolbioside	Steviolbioside (SB)	sweetness relative to sucrose [3]: 100-150 times sweeter than sucrose
C=C1C[C@@]23CC[C@H]4[C@@](C)(CCC[C@@]4(C)C(=O)O)[C@@H]2CC[C@]1(O[C@@H]1O[C@H](CO)[C@@H](O)[C@H](O)[C@H]1O)C3 [steviol-13-glucoside]	–	steviol	extent of conversion by recombinant B-glu1 at 24 hrs [2]: completely
rebaudioside B [Reb B]	–	No cleavage	–
B1	–	–	activity to cleave related steviol glycosides ([2]; activity screening of candidate Pichia pastoris beta-glucosidases): strong activity
